According to patent US4570006A, “Amidine compound, process for producing same and anti-complement agent comprising same” (Torii & Co. Ltd., priority 1981, dated 1986):

Tests used:
[1] = biological target: T1, Clr (Homo sapiens, UniProt P00736); assay: Anti-Cl esterase activity, Clr (AAME hydrolysis); format: biochemical; conditions: hydrolysis of AAME; read-out: Anti-Cl activity, Clr (ID50)
T1 sequence (P00736 464-705 limits assumed): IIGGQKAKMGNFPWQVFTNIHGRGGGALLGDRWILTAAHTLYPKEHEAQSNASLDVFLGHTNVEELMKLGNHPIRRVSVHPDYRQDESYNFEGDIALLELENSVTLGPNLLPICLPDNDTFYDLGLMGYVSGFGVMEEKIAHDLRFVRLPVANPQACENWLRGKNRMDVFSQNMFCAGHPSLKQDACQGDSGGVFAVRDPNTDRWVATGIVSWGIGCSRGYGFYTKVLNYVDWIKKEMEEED
T1 sequence (P00736 18-463 limits assumed): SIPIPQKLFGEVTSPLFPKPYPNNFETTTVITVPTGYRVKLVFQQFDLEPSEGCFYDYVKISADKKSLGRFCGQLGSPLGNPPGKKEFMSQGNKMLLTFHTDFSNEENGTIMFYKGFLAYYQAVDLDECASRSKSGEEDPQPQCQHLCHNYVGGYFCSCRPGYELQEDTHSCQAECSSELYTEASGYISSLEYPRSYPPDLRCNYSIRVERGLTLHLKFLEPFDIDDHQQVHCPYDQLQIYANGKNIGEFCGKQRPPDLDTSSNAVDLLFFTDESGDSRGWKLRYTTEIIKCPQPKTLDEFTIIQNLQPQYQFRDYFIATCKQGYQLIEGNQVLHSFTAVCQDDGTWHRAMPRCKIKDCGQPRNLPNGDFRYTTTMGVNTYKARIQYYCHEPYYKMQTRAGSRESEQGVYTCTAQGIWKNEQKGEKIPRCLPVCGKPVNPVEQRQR
Description: The anti-Cl esterase ([…]) activity was determined according to the method of Okamura et al. [K. Okamura, M. Muramatsu and B. Fujii, Biochem. Biophys.

[2] = biological target: Thrombin (Homo sapiens, UniProt P00734); assay: biochemical; conditions: TAME hydrolysis; read-out: ID50, thrombin
[3] = biological target: Plasmin (Homo sapiens, UniProt P00747); assay: Anti-plasmin activity (inhibition of TAME hydrolysis); format: biochemical; conditions: read-out: ID50, plasmin
Sequence of Plasmin (P00747 581-810 limits assumed, species assumed): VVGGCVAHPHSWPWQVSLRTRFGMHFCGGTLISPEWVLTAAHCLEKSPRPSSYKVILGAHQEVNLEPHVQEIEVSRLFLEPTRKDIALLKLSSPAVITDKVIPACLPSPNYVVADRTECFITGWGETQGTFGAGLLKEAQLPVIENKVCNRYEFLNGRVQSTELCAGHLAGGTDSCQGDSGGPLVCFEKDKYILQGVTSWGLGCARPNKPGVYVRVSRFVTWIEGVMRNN
Sequence of Plasmin (P00747 97-580 limits assumed, species assumed): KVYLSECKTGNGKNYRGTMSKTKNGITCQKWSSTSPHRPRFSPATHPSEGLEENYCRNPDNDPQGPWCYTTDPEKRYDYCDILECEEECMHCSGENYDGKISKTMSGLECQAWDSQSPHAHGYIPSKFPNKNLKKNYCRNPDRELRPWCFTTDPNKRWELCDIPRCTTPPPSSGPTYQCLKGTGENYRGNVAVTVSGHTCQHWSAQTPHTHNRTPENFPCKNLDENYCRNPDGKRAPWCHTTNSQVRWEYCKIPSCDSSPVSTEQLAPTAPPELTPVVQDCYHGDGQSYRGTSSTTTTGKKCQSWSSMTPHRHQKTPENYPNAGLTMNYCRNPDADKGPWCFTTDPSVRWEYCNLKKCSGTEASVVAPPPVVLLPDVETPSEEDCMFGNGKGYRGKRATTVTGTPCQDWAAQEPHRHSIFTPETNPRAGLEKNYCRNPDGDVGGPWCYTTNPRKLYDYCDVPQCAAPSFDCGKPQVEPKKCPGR
Description: (§1) The anti-trypsin, anti-plasmin, anti-kallikrein and anti-thrombin activities were determined according to the method of Muramatsu et al. [M. Muramatsu, T. Onishi, S. Makino, Y. Hayashi and S. Fujii, J. of Biochem., 58, 214 (1965)]. The data summarized in Table 1 are expressed in terms of molar concentration (ID50) of the test compound which inhibits 50% of the activity of each enzyme to hydrolyze TAME (tosylarginine methyl ester). The compound No. corresponds to the compound number shown in Examples.

[4] = test system: complement; assay: Inhibition of complement mediated hemolysis; format: cell-based
Description: The complement mediated hemolysis is widely used as a means to determine the titration of complement. The principle of this method is based on the fact that hemolysis if caused by the activation of complement, when the latter is added to a complex (immune complex) of erythrocytes and the antibody thereof. The degree of hemolysis varies in proportion to the amount of complement added. Therefore, when a known amount of complement admixed with a Cl esterase inhibitor is used, the hemolysis must be suppressed in proportion to the inhibitory activity.
The anti-Cl esterase (Clr, Cls) activity was determined according to the method of Okamura et al. [K. Okamura, M. Muramatsu and B. Fujii, Biochem. Biophys. […] The figures in Table 2 have the following meanings: […]

[5] = biological target: T2, Cls (Homo sapiens, UniProt P09871); assay: Anti-Cl esterase activity, Cls (ATEE hydrolysis); format: biochemical; conditions: hydrolysis of ATEE; read-out: Anti-Cl activity, Cls (50% inhibition)
T2 sequence (P09871 438-688 limits assumed): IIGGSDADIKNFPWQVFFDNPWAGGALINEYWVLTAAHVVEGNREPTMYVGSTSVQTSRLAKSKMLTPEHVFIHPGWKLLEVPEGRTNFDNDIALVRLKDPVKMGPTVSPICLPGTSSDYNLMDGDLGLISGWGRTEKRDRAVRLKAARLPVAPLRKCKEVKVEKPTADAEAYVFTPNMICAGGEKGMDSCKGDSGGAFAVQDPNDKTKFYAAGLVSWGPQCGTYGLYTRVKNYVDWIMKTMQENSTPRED
T2 sequence (P09871 16-437 limits assumed): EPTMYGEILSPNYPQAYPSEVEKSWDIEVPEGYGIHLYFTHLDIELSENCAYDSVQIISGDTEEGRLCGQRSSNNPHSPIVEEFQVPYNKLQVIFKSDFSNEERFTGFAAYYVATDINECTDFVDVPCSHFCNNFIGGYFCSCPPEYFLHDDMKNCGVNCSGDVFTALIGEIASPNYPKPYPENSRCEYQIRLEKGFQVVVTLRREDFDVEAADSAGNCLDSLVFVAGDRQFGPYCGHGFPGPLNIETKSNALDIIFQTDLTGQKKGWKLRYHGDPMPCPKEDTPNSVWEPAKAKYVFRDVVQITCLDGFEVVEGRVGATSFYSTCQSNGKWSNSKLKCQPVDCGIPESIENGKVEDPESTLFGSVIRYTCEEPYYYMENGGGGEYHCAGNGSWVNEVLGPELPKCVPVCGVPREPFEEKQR
Description: The anti-Cl esterase (Clr, Cls) activity was determined according to the method of Okamura et al. [K. Okamura, M. Muramatsu and B. Fujii, Biochem. Biophys. […] The figures in Table 2 have the following meanings:
Cls: Molar concentration of the test compound which inhibits 50% of the ability of Cls to hydrolyse ATEE (acetyltyrosin ethyl ester).

[6] = biological target: T3, Trypsin (Bos taurus, UniProt P00760); assay: Anti-trypsin activity (inhibition of TAME hydrolysis); format: biochemical; conditions: read-out: ID50, trypsin
T3 sequence (P00760 24-246): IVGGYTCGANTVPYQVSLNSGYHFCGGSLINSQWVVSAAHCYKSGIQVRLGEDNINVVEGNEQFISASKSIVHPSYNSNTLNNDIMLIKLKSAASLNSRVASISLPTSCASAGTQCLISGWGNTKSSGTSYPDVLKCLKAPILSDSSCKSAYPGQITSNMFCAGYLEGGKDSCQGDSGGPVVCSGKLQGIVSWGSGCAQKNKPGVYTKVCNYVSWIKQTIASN
Description: as §1

[7] = test system: Kallikrein; assay: Anti-kallikrein activity (inhibition of TAME hydrolysis); format: biochemical; conditions: read-out: ID50, kallikrein
Description: as §1

SMILES | IC50 [1] [nM] | IC50 [2] [nM] | IC50 [3] [nM] | Inhibition of complement mediated hemolysis (%) ([4]; compound at 1 × 10^-4) | Inhibition of complement mediated hemolysis (%) ([4]; compound at 1 × 10^-5) | Inhibition of complement mediated hemolysis (%) ([4]; compound at 1 × 10^-6) | Inhibition of complement mediated hemolysis (%) ([4]; compound at 1 × 10^-7) | IC50 [5] [nM] | IC50 [6] [nM] | IC50 [7] [nM]
CC(=O)Oc1ccc(C=CC(=O)Oc2ccc(C(=N)N)cc2C(=O)c2ccccc2)cc1 [Compound 54, 4-amidino-2-benzoylphenyl 4-acetyloxycinnamate] | 2000 | 90 | 300 | 99.1 | 98.6 | 79.4 | 41.1 | 200 | 20 | 400
CC(C)(C)c1ccc(C(=O)Oc2ccc(C(=N)N)cc2C(=O)c2ccccc2)cc1 [Compound 39] | 400 | 200 | 200 | 0 | 95.4 | 96.8 | 52.1 | 200 | 10 | 400
N=C(N)c1ccc(OC(=O)CCCCCN)c(C(=O)c2ccccc2)c1 [Compound 13, 4-amidino-2-benzoylphenyl 6-aminocaproate] | > 10000 | > 10000 | > 10000 | 15.9 | 9.8 | 0 | 0 | > 10000 | > 10000 | > 10000
N=C(N)c1ccc(OC(=O)c2ccc(O)cc2)c(C(=O)c2ccccc2)c1 [Compound 46, 4-amidino-2-benzoylphenyl 4-hydroxybenzoate] | 2000 | 40 | 600 | 100 | 98.0 | 67.6 | 5.0 | 90 | 50 | 300
N=C(N)c1ccc(OC(=O)CCCCCNC(=O)OCc2ccccc2)c(C(=O)c2ccccc2)c1 [Compound 12, 4-amidino-2-benzoylphenyl 6-benzyloxycarbonylaminocaproate] | > 10000 | 4000 | > 10000 | 91.3 | 57.8 | 15.0 | 3.8 | 5000 | 6000 | > 10000
N=C(N)c1ccc(OC(=O)C=Cc2ccc3c(c2)OCO3)c([N+](=O)[O-])c1 [Compound 48] | > 10000 | 400 | 200 | 94.0 | 94.8 | 75.3 | 23.2 | 3000 | 2000 | 8000
N=C(N)c1ccc(OC(=O)c2ccccc2)c([N+](=O)[O-])c1 [Compound 27, 4-amidino-2-nitrophenyl benzoate] | 500 | 100 | 400 | 100 | 100 | 95.5 | 26.2 | 200 | 300 | 4000
COC(=O)c1cc(C(=N)N)ccc1OC(=O)c1ccc(C=O)cc1 [Compound 51] | > 10000 | 900 | 300 | 99.1 | 90.9 | 15.0 | 0 | 3000 | 200 | > 10000
N=C(N)c1ccc(OC(=O)CCCc2ccccc2)c(C(=O)c2ccccc2)c1 [Compound 33] | > 10000 | > 10000 | > 10000 | 94.1 | 20.4 | 0 | 0 | > 10000 | > 10000 | > 10000
N=C(N)c1ccc(OC(=O)c2ccccc2)c(Cl)c1 [Compound 26, 4-amidino-2-chlorophenyl benzoate] | 200 | 60 | 400 | 100.0 | 99.4 | 61.6 | 16.7 | 300 | 400 | 2000
COc1cc(C(=N)N)ccc1OC(=O)c1ccccc1 [Compound 23, 4-amidino-2-methoxyphenyl benzoate] | 7000 | 200 | 20000 |  |  |  |  | 5000 | 10000 | 60000
CC(=O)Oc1ccc(C(=N)N)cc1C(=O)c1ccccc1 [Compound 1, 4-amidino-2-benzoylphenyl acetate] | > 10000 | > 10000 | > 10000 | 95.9 | 37.3 | 16.0 | 0 |  | > 10000 | > 10000
N=C(N)c1ccc(OC(=O)C2CC2)c([N+](=O)[O-])c1 [Compound 7, 4-amidino-2-nitrophenyl cyclopropanecarboxylate] | > 10000 | 500 | 4000 | 99.0 | 78.2 | 10.2 | 1.7 |  | > 10000 | > 10000
